Values quoted from earlier work in patent publication US20100285098A1, “ADHERING TROCHES WITH SANTACID FOR TREATMENT OF THROAT ESOPHAGUS AND STOMACH” (priority 2007, published 2010).

What was measured:
[1] = test system: Streptococcus pyogenes
[2] = test system: Helicobacter pylori

SMILES | absorbed into the blood (delivered to the stomach such as by capsule) [%] | inhaled dose systemically absorbed (delivered topically by dry powder inhaler) | excretion (in vivo) | metabolism by the body (in vivo) | side effects (other than those caused by the delivery vehicle) | suppression of Streptococcus pyogenes [1] | suppression of Helicobacter pylori [2]
CC(=O)N[C@H]1[C@H]([C@H](O)[C@H](O)CO)OC(C(=O)O)=C[C@@H]1N=C(N)N [Zanamavir, zanamavir] | 2 | 4-17% | excreted in the urine without change | not metabolized | Rare side effects |  | 
OC[C@@H](O)[C@H](O)[C@@H](O)CO [xylitol] |  |  |  |  |  | suppressed | suppressed
